Reference: paper PMC8877291, “Design and Synthesis of Arylpiperazine Serotonergic/Dopaminergic Ligands with Neuroprotective Properties” (Molecules, 2022)
“And” between values parts separate entries of the source, which are not always exact repeats. Identical values can stand only once.

Columns and labels:
[1] = Cytotoxicity in SH-SY5Y cells (MTT assay); assay type: cell-based, human; settings: human, SH-SY5Y neuroblastoma cells, MTT, 0.1 to 100 μM, ± S.E.M.
Protocol: Initially, the cytotoxicity of the target compounds was assessed by treating SH-SY5Y cells for 48 h with various concentrations of compounds (0.1 to 100 μM).
SH-SY5Y neuroblastoma cells (cat. CRL-2266, ATCC) were cultured in a 1:1 mixture of Eagle’s Minimum Essential Medium (cat. 15-010-CVR, Corning) and Ham’s F12 medium (cat. 10-080-CVR, Corning). This medium was supplemented with 10% (v/v) Fetal Bovine Serum (cat. 35-079-CV, Corning), 1% (v/v) Glutamine (cat. ECB3000D, Euro Clone) and 1% (v/v) Penicillin—Streptomycin (cat.30-002-CI, Corning). Cells were cultivated at 37 °C with 5% CO2 at saturated humidity.
Determination of cell growth was performed using the MTT assay at 48 h. On day 1, 25,000 cells/well were seeded into 96-well plates in a volume of 100 μL. On day 2, the various drug concentrations ([…]–100 μM) were added. In all the experiments, the various drug-solvents (EtOH, DMSO) were added in each control to evaluate possible solvent cytotoxicity. After the established incubation time with drugs (48 h), MTT (0.5 mg/mL) was added to each well, and after 3–4 h incubation at 37 °C, the supernatant was removed. The formazan crystals were solubilized using 100 μL of DMSO/EtOH (1:1, v/v) and the absorbance values at 570 and 630 nm were determined on the microplate reader Victor 3 (PerkinElmer Life Sciences, Waltham, MA, USA).

dopamine D1 receptor = molecular target: T1, dopamine D1 receptor (Homo sapiens, UniProt P21728); assay: Dopamine D1 receptor competition binding ([3H]-SCH23390); settings: HEK-293 membranes, [3H]-SCH23390 0.3 nM, mean (CI 95%), read-out: Affinity Ki D1
T1 construct: expressed in transfected cells
Protocol: (§1) The final compounds were tested for their affinity at serotonin 5-HT1A, 5-HT2A, and 5-HT7 receptors and at dopamine D1, D2, D3, and D5 receptors. As a first step, competition radioligand binding assays were carried out for all the compounds at the single concentration of 10 µM, on membrane preparations from stable cell lines heterologously expressing the human cloned 5-HT1A, 5-HT2A, or 5-HT7 receptors. […] For the affinity determination at dopamine receptor subtypes, membrane fractions of human dopamine D2s, D3, D1, and D5 receptor-expressing cells were used. They were co-incubated with [^3H]spiperone (for D2s and D3 receptor) or [^3H]SCH23390 (for D1 and D5 receptor) and appropriate concentrations of test compound for 120 min. Bound radioligand was separated from the free ligand using filtration. Radioactivity was measured by liquid scintillation counting.
The affinity for dopamine D1 and D5 receptors was evaluated in membrane fractions of HEK-293 cells stably expressing the human dopamine D1 or D5 receptor. HEK-293-D1 cells were cultured in DMEM/F12 (15 mM HEPES, 1.2 g/L NaHCO3) with 10% (v/v) FBS and 1% (v/v) L-glutamine. HEK-293-D5 cells were cultured in DMEM/F12 (with L-glutamine, 1.2 g/L NaHCO3) with 20% (v/v) FBS. Preparation of membrane fractions and radioligand competition assays were performed as previously described. Briefly, membrane fractions were co-incubated with [^3H]-SCH23390 (0.3 nM) and different concentrations of test compound for 120 min at room temperature. Fluphenazine (100 µM) was used to determine non-specific binding and as reference compound.
Data of at least three independent experiments in triplicate were analyzed using GraphPad Prism 8.1 (San Diego, CA, USA). Binding curves were fitted to a non-linear regression model (one-site competition). Ki values were calculated from IC50 values using the Cheng–Prusoff equation. The statistical calculations were performed on –log(Ki).

dopamine D3 receptor = dopamine D3 receptor (Homo sapiens, UniProt P35462); assay: Dopamine D3 receptor competition binding ([3H]spiperone)
Protocol: Competition binding experiments at dopamine D2s and D3 receptor were performed to determine the affinity of the compounds. […] Membrane preparations of transfected CHO-K1 cells stably expressing the human D2s or D3 receptor were performed according to Bautista-Aguilera et al. [26]. The competition binding experiments were conducted as previously reported [26, 27]. Briefly, membrane fractions (D2sR: 25 µg/200 µL; D3R: 20 µg/200 µL) were incubated with [^3H]spiperone (0.2 nM) and test compound for 120 min at room temperature. […] Non-specific binding was determined in the presence of 10 µM haloperidol. Haloperidol was also used as reference compound. Separation of the bound ligand from the free ligand was conducted by filtration through GF/B filters using deionized water.

[2] = molecular target: T2, serotonin 5-HT2A receptor (Homo sapiens, UniProt P28223); assay: 5-HT2A receptor radioligand competition binding ([3H]-ketanserin); settings: human cloned receptor, CHO-K1 membranes, 1 nM [3H]-ketanserin; ± S.E.M., n = 3 in duplicate; read-out: Affinity Ki 5-HT2A
T2 construct: expressed in transfected cells

[3] = molecular target: T3, serotonin 5-HT1A receptor (Homo sapiens, UniProt P08908); assay: 5-HT1A receptor radioligand competition binding ([3H]-8-Hydroxy-DPAT); settings: for Ki: human cloned receptor, HEK293 membranes, 1 nM [3H]-8-Hydroxy-DPAT, ± S.E.M., n = 3 in duplicate, read-out: Affinity Ki 5-HT1A; for Ki ratio of the trimethylene and tetramethylene homologs at 5-HT1A: Ki of a (trimethylene) / Ki of b (tetramethylene) homolog, given as a/b
T3 construct: expressed in transfected cells
T3 sequence (P08908 1-422): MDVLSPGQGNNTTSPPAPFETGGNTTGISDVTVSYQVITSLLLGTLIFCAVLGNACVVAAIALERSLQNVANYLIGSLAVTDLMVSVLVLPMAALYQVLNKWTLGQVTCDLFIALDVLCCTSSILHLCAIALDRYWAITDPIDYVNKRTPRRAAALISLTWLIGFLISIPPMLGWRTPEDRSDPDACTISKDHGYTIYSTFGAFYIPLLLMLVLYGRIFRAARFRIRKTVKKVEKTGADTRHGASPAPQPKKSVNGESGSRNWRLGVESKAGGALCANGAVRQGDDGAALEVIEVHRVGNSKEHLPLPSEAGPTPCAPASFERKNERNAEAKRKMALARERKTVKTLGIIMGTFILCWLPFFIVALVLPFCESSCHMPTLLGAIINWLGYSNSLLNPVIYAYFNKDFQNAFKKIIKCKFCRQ
Protocol: as §1, with “As” for “The final compounds were tested for their affinity at serotonin 5-HT1A, 5-HT2A, and 5-HT7 receptors and at dopamine D1, D2, D3, and D5 receptors. As”
The affinity of the compounds for serotonin 5-HT1A receptor was evaluated in membrane preparations from HEK293 cells stably expressing the human cloned receptor, following previously described procedures with minor modifications. Competition binding experiments were performed using 1 nM [^3H]-8-Hydroxy-DPAT (1 mCi/mL, PerkinElmer NET929250UC) as radioligand. Nonspecific binding was assessed in the presence of 10 µM serotonin. […] Assays were carried out in duplicate in 96-well assay plates, in assay buffer (50 mM Tris-HCl, 5 mM MgSO4, pH = 7.4). Assay mixtures were incubated at 37 °C for 120 min, followed by filtration through GF/C glass filter plates, and washed with ice-cold wash buffer (50 mM Tris-HCl, pH = 7.4).

T1 sequence (P21728 whole entry): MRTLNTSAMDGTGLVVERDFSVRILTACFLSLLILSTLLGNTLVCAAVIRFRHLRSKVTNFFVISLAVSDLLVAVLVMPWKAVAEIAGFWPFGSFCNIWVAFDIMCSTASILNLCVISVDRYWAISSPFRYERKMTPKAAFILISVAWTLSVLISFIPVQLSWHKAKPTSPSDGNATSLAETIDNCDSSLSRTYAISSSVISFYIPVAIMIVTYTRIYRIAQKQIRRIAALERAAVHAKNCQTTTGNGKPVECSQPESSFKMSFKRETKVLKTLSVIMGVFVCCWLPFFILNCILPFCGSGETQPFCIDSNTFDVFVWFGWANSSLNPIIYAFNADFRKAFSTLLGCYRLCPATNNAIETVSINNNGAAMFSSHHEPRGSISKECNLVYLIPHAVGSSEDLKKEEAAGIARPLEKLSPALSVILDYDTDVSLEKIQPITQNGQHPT
Sequence of dopamine D3 receptor (P35462 whole entry): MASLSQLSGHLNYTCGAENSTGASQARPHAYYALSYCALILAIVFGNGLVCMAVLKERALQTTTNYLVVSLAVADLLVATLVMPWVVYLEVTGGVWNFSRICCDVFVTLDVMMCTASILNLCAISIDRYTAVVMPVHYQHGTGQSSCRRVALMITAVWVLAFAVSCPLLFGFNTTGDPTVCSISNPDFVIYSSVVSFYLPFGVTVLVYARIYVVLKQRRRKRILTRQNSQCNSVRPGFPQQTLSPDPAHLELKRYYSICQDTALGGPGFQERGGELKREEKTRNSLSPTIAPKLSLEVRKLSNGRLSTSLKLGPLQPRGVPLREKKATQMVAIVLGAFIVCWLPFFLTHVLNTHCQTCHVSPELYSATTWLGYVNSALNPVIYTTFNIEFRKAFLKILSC
T2 sequence (P28223 whole entry): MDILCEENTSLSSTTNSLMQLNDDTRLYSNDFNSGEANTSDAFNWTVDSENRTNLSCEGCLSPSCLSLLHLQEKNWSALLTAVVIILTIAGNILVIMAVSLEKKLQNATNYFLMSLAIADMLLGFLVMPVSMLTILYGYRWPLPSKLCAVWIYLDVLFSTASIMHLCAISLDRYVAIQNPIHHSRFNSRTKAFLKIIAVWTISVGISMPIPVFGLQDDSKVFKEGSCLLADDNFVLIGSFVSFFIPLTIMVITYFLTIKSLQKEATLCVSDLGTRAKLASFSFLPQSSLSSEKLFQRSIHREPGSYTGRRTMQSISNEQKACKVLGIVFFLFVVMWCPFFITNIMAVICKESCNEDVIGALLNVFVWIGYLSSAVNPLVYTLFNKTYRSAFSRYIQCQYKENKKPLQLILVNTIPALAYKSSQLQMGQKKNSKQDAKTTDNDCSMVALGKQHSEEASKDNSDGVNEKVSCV

| Compound | EC50 at 48 h [1] [nM] | Ki (dopamine D1 receptor) [nM] | Ki (dopamine D3 receptor) [nM] | Ki [2] [nM] | Ki [3] | Ki ratio of the trimethylene and tetramethylene homologs at 5-HT1A [3] |
| --- | --- | --- | --- | --- | --- | --- |
| COc1ccc(-c2cc(F)ccc2N2CCN(CCCCn3ncc(=O)n(C)c3=O)CC2)cc1 [Compound 9b, 2-(4-(4-(5-Fluoro-4’-methoxy-[1,1’-biphenyl]-2-yl)piperazin-1-yl)butyl)-4-methyl-1,2,4-triazine-3,5(2H,4H)-dione] | 51900 ± 4300 | 88.3 | > 10000 | 39.4 ± 7.4 | 23.9 ± 4.9 nM |  |
| Cc1cc(=O)oc2cc(OCCCCN3CCN(c4ncccc4-c4ccncc4)CC3)ccc12 [Compound 12b, 7-(4-(4-([3,4’-Bipyridin]-2-yl)piperazin-1-yl)butoxy)-4-methyl-2H-chromen-2-one] | 47900 ± 3500 | 1530 | 424 | ~1420 | < 17.6 nM and 11.3 nM |  |
| CC1Oc2ccc(OCCCN3CCN(c4ncccc4-c4ccncc4)CC3)cc2NC1=O (stereo not drawn) [Compound 8a, 6-(3-(4-([3,4’-Bipyridin]-2-yl)piperazin-1-yl)propoxy)-2-methyl-2H-benzo[b][1,4]oxazin-3(4H)-one] | 32900 ± 3500 | 6290 | 1220 | 782 ± 119 | < 17.6 nM and 13.1 nM | 0.7 |
| Cn1c(=O)cnn(CCCCN2CCN(c3ccc(F)cc3-c3ccc(C#N)cc3)CC2)c1=O [Compound 10b, 5’-Fluoro-2’-(4-(4-(4-methyl-3,5-dioxo-4,5-dihydro-1,2,4-triazin-2(3H)-yl)butyl)piperazin-1-yl)-[1,1’-biphenyl]-4-carbonitrile] | 34300 ± 2500 | 140 | > 10000 | 80.7 ± 3.1 | 43.4 ± 6.2 nM |  |
| Cc1cc(=O)oc2cc(OCCCN3CCN(c4ncccc4-c4ccncc4)CC3)ccc12 [Compound 12a, 7-(3-(4-([3,4’-Bipyridin]-2-yl)piperazin-1-yl)propoxy)-4-methyl-2H-chromen-2-one] | 35200 ± 4100 | 2200 | 1080 | 315 ± 44 | 41.5 ± 3 nM | 3.7 |
| Cn1c(=O)cnn(CCCN2CCN(c3ccc(F)cc3-c3ccc(C#N)cc3)CC2)c1=O [Compound 10a, 5’-Fluoro-2’-(4-(3-(4-methyl-3,5-dioxo-4,5-dihydro-1,2,4-triazin-2(3H)-yl)propyl)piperazin-1-yl)-[1,1’-biphenyl]-4-carbonitrile] | 28200 ± 3200 | 104 | > 10000 | 96.8 ± 11 | 1090 ± 154 nM |  |
| Cn1c(=O)cnn(CCCCN2CCN(c3ncccc3-c3ccncc3)CC2)c1=O [Compound 11b, 2-(4-(4-([3,4’-Bipyridin]-2-yl)piperazin-1-yl)butyl)-4-methyl-1,2,4-triazine-3,5(2H,4H)-dione] | > 100000 | > 10000 | > 10000 | > 10000 | < 17.6 nM and 5.19 nM |  |
| CC1Oc2ccc(OCCCCN3CCN(c4ncccc4-c4ccncc4)CC3)cc2NC1=O (stereo not drawn) [Compound 8b, 6-(4-(4-([3,4’-Bipyridin]-2-yl)piperazin-1-yl)butoxy)-2-methyl-2H-benzo[b][1,4]oxazin-3(4H)-one] | 25500 ± 2200 | 1710 | 691 | 611 ± 87 | < 17.6 nM and 17.6 nM |  |
| Cn1c(=O)cnn(CCCN2CCN(c3ncccc3-c3ccncc3)CC2)c1=O [Compound 11a, 2-(3-(4-([3,4’-Bipyridin]-2-yl)piperazin-1-yl)propyl)-4-methyl-1,2,4-triazine-3,5(2H,4H)-dione] | > 100000 | > 10000 | > 10000 | > 10000 | 269 ± 18 nM | 52 |
